Here are results for two molecules from ChEMBL document CHEMBL6127085, “Design, synthesis and evaluation of novel LpxC inhibitors containing a hydrazone moiety as Gram-negative antibacterial agents” (Eur J Med Chem, 2024).

As a reminder, the MRT last is a mean duration of stay, worked out from the concentration-time curve. Broadly, the bioavailability is dose-corrected exposure relative to a reference, in per cent. As a reminder, the half-life is the time needed for the level to fall by half in the phase considered. Broadly, the MIC is the least concentration at which growth counts as inhibited. By AUC(0-t) is commonly meant the area under the concentration-time curve up to a stated or last time point. Lower therefore signals less exposure. Usually clearance stands for the rate of elimination divided by the concentration. Lower therefore signals inefficient removal. The term Tmax denotes the time from dosing to the highest level. The term Cmax denotes the maximum level reached in the sampled fluid or tissue. The IC50 is the concentration needed to halve the response being measured.

Data set [1] can be described thus: MRT (0 to t) in male Sprague-Dawley rat at 1 mg/kg, iv measured upto 24 hrs by LC-MS analysis. The format is ADME, organism-based. The note with it: in vivo.
Data set [2] can be described thus: Oral bioavailability in male Sprague-Dawley rat at 10 mg/kg, IG measured upto 24 hrs by LC-MS analysis. In kind it is ADME, organism-based. To be noted: in vivo.
Data set [3] is described as follows: Metabolic stability in human liver microsomes assessed as half life at 1 uM preincubated for 5 mins followed by NADPH addition and measured after 5 to 60 mins by LC-MS analysis. In kind it is ADME, Microsome. To be noted: liver microsomes, time 10-65 min.
The subject of data set [4] is Pseudomonas aeruginosa. The data set is described as follows: Antibacterial activity against Pseudomonas aeruginosa ATCC27853 assessed as reduction in bacterial growth measured after 18 to 24 hrs by CLSI protocol based method. In kind it is functional. To be noted: time 18-24 hrs.
Data set [5] can be described thus: AUC (0 to t) in male Sprague-Dawley rat at 10 mg/kg, IG measured upto 24 hrs by LC-MS analysis. The format is ADME, organism-based. The note with it: in vivo, po.
Data set [6] is described as follows: MRT (0 to t) in male Sprague-Dawley rat at 10 mg/kg, IG measured upto 24 hrs by LC-MS analysis. The format is ADME, organism-based. To be noted: in vivo, po.
Data set [7] relates to Klebsiella pneumoniae. Description: Antibacterial activity against Klebsiella pneumoniae ATCC700603 assessed as reduction in bacterial growth measured after 18 to 24 hrs by CLSI protocol based method. The format is functional. The note with it: time 18-24 hrs.
Data set [8] in a line: Half life in male Sprague-Dawley rat at 10 mg/kg, IG measured upto 24 hrs by LC-MS analysis. The format is ADME, organism-based. To be noted: in vivo, po.
The nature of data set [9]: Stability in human plasma at 1 uM incubated for 6 hrs by LC-MS/MS analysis. The format is ADME, cell-free. The note with it: read-out: Stability.
Data set [10] relates to Klebsiella pneumoniae. The data set is described as follows: Antibacterial activity against Klebsiella pneumoniae clinical isolate KPN+22-1 assessed as reduction in bacterial growth measured after 18 to 24 hrs by CLSI protocol based method. The format is functional. The note with it: time 18-24 hrs.
A short description of data set [11]: Clearance in male Sprague-Dawley rat at 1 mg/kg, iv measured upto 24 hrs by LC-MS analysis. The format is ADME, organism-based. To be noted: in vivo.
The nature of data set [12]: Plasma protein binding in mouse assessed as drug recovery at 1 uM incubated for 6 hrs by LC-MS/MS analysis. The format is ADME, cell-free. To be noted: read-out: Drug recovery.
Data set [13] is described as follows: Intrinsic clearance in mouse. In kind it is ADME, organism-based. To be noted: read-out: CLH.
Data set [14] is described as follows: Tmax in male Sprague-Dawley rat at 10 mg/kg, IG measured upto 24 hrs by LC-MS analysis. The format is ADME, organism-based. The note with it: in vivo, po.
The nature of data set [15]: Plasma protein binding in human assessed as drug recovery at 1 uM incubated for 6 hrs by LC-MS/MS analysis. The format is ADME, cell-free. To be noted: read-out: Drug recovery.
The nature of data set [16]: Metabolic stability in rat liver microsomes assessed as half life at 1 uM preincubated for 5 mins followed by NADPH addition and measured after 5 to 60 mins by LC-MS analysis. In kind it is ADME, Microsome. The note with it: liver microsomes, time 10-65 min. In general terms: Microsomes from liver hold many membrane-bound enzymes, among them those of drug oxidation.

Data set [17] is described as follows: Metabolic stability in mouse liver microsomes assessed as half life at 1 uM preincubated for 5 mins followed by NADPH addition and measured after 5 to 60 mins by LC-MS analysis. The format is ADME, Microsome. The note with it: liver microsomes, time 10-65 min.
Data set [18] deals with Pseudomonas aeruginosa. The data set is described as follows: Antibacterial activity against Pseudomonas aeruginosa clinical isolate PAE22-1 assessed as reduction in bacterial growth measured after 18 to 24 hrs by CLSI protocol based method. In kind it is functional. To be noted: time 18-24 hrs.
A short description of data set [19]: Plasma protein binding in rat assessed as drug recovery at 1 uM incubated for 6 hrs by LC-MS/MS analysis. The format is ADME, cell-free. To be noted: read-out: Drug recovery.
A short description of data set [20]: Stability in rat plasma at 1 uM incubated for 6 hrs by LC-MS/MS analysis. To be noted: read-out: Stability. In kind it is ADME, cell-free.
The nature of data set [21]: Intrinsic clearance in rat. To be noted: read-out: CLH. The format is ADME.
Data set [22] in a line: AUC (0 to t) in male Sprague-Dawley rat at 1 mg/kg, iv measured upto 24 hrs by LC-MS analysis. To be noted: in vivo. The format is ADME, organism-based.
Data set [23] in a line: Intrinsic clearance in human. In kind it is ADME. To be noted: read-out: CLH.
Data set [24] can be described thus: Metabolic stability in mouse liver microsomes assessed as intrinsic clearance at 1 uM preincubated for 5 mins followed by NADPH addition and measured after 5 to 60 mins by LC-MS analysis. In kind it is ADME, Microsome. The note with it: liver microsomes, time 10-65 min, read-out: CLH.
Data set [25] in a line: Volume of distribution at steady state in male Sprague-Dawley rat at 1 mg/kg, iv measured upto 24 hrs by LC-MS analysis. To be noted: in vivo, read-out: Vdss. In kind it is ADME, organism-based.
Data set [26] deals with Escherichia coli. Description: Antibacterial activity against Escherichia coli ATCC25922 assessed as reduction in bacterial growth measured after 18 to 24 hrs by CLSI protocol based method. The format is functional. The note with it: time 18-24 hrs.
Data set [27] in a line: Stability in mouse plasma at 1 uM incubated for 6 hrs by LC-MS/MS analysis. The format is ADME, cell-free. The note with it: read-out: Stability.
Data set [28] in a line: Half life in male Sprague-Dawley rat at 1 mg/kg, iv measured upto 24 hrs by LC-MS analysis. The note with it: in vivo. In kind it is ADME, organism-based.
The nature of data set [29]: Metabolic stability in rat liver microsomes assessed as intrinsic clearance at 1 uM preincubated for 5 mins followed by NADPH addition and measured after 5 to 60 mins by LC-MS analysis. The format is ADME, Microsome. The note with it: liver microsomes, time 10-65 min, read-out: CLH.
Data set [30] is described as follows: Metabolic stability in human liver microsomes assessed as intrinsic clearance at 1 uM preincubated for 5 mins followed by NADPH addition and measured after 5 to 60 mins by LC-MS analysis. To be noted: time 10-65 min, read-out: CLH. The format is ADME, Microsome.
The nature of data set [31]: Cmax in male Sprague-Dawley rat at 10 mg/kg, IG measured upto 24 hrs by LC-MS analysis. In kind it is ADME, organism-based. The note with it: in vivo, po.
Another data set relates to HepG2. The data set is described as follows: Cytotoxicity against human HepG2 cells assessed as inhibition of cell growth measured after 48 hrs by MTT assay. The format is functional, cell-based. The note with it: HepG2, 48 h. (In general: Tetrazolium dyes change colour on reduction, which living cells bring about.)
In data set [32] the test system is Escherichia coli. The data set is described as follows: Potency index, ratio of CHIR-090 MIC to test compound MIC for antibacterial activity against Escherichia coli ATCC25922 assessed as reduction in bacterial growth measured after 18 to 24 hrs by CLSI protocol based method. In kind it is functional. The note with it: time 18-24 hrs.

Converted amounts (≈) assume the structure as drawn. Bounds are passed on as bounds.

Consider `C[C@@H](O)[C@H](NC(=O)c1ccc(C#Cc2ccc(CN3CCOCC3)cc2)cc1)C(=O)NO`, for which the MRT last at 24 h in data set [1] worked out at 14.4 min; in data set [6], 65.4 min. Further, in data set [2], the bioavailability came to 10.6%. Also, the figures for the half-life at 1 µM in data set [3], in data set [16] and in [17] were 1010 min, 21.7 min and 73.5 min, respectively. Moreover, the MIC in the data set on Pseudomonas aeruginosa [4] was 4 µg/mL (≈ 9.14 µM); in the data set on Klebsiella pneumoniae [7], 8 µg/mL (≈ 18.3 µM); in the data set with Klebsiella pneumoniae [10], 1 µg/mL (≈ 2.29 µM); in the data set on Pseudomonas aeruginosa [18] it was 2 µg/mL (≈ 4.57 µM); with Escherichia coli [26], 0.5 µg/mL (≈ 1.14 µM). Besides, the figures for the AUC(0-t) at 24 h in data set [5] and in [22] were 243 ng·h/mL and 249 ng·h/mL, respectively. The half-life in [8] was 67.2 min; in [28], 17.4 min. The remaining at 6 h, 1 µM is 106% in [9], 94.5% in data set [20] and 93.2% in [27]. The same molecule yielded a clearance in [11] of 66.7 mL/min/kg. The results for the recovery at 6 h, 1 µM in [12], in data set [15] and in data set [19] were 98.6%, 101% and 91.7%, respectively. Further, the CLint scaled was 74.2 mL/min/kg in data set [13], 115 mL/min/kg in [21] and 1.3 mL/min/kg in [23]. Moreover, the Tmax in data set [14] was 15 min. Further, the figures for the microsomal CLint at 1 µM in data set [24], in data set [29] and in data set [30] were 18.8 µL/min/mg, 64 µL/min/mg and 1.38 µL/min/mg, respectively. For the same molecule, the Vd in [25] came to 0.98 L/kg. Moreover, in [31], the peak level (Cmax) was 262 ng/mL. Also, in the data set on HepG2, the IC50 was over 30 µM.
`C[C@@H](O)[C@H](NC(=O)c1ccc(C#Cc2ccc(/C=N/N3CCSCC3)cc2)cc1)C(=O)NO`: the MIC was over 64 µg/mL in the data set on Pseudomonas aeruginosa [4]; over 64 µg/mL in the data set on Klebsiella pneumoniae [7]; 1 µg/mL (≈ 2.14 µM) in the data set on Klebsiella pneumoniae [10]; 8 µg/mL (≈ 17.1 µM) in the data set with Pseudomonas aeruginosa [18]; 0.25 µg/mL (≈ 0.536 µM) in the data set on Escherichia coli [26]. The Ratio in the data set on Escherichia coli [32] is 2.
